Common to all, as to assay: NCI tumour cell line growth inhibition, 48 h
Assay [1] deals with SN12C.
For assay [2], the system named is MDA-MB-231.
The test system of assay [3] is A498.
Assay [4] relates to U-251.
The subject of assay [5] is UO-31.
The subject of assay [6] is NCI-H23.
Assay [7] deals with SF-295.
The test system of assay [8] is SF-268.
The test system of assay [9] is RXF 393.
Assay [10] relates to SNB-75.
For assay [11], the system named is HOP-92.
Assay [12] deals with ACHN.
The subject of assay [13] is UACC-257.
Assay [14] has as its system T47D.
Assay [15] concerns HL-60.
Assay [16] deals with MDA-N.
The test system of assay [17] is OVCAR-4.
Assay [18] relates to MDA-MB-435.
Assay [19] concerns HOP-62.
Assay [20] relates to SR.

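Step 1: Grow cells in 96-well plates. Step 2: Expose to compound for 48 hours at 5 concentrations. Step 3: Interpolate endpoints linearly; if unreached, use highest concentration. Abbreviation: GI50, concentration required for 50% inhibition of growth.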 Activity calls are given as the source filed them. Cut-off read from the data, not from the text of the source: active = GI50 up to about 1.1 µM and inactive = higher.

In the case of `CC1C2(C)OC(=N)C(C#N)(C(c3cccc([N+](=O)[O-])c3)O2)C1(C#N)C#N` (stereo unspecified), the GI50 in assay [1] was 14.9 µM (inactive); in assay [2], 14.6 µM (inactive); in assay [3] it was > 100 µM (inactive); in [4] it was 21.9 µM (inactive); in assay [5], 35.6 µM (inactive); in [6], 33.6 µM (inactive). Also, the GI50 in assay [7] was 84.7 µM (inactive); in [8] it was 33 µM (inactive); in [9] it was 21.4 µM (inactive); in assay [10], 40.6 µM (inactive); in assay [11], 13.6 µM (inactive); in assay [12], 34 µM (inactive). For the same compound, the GI50 was 19.6 µM (inactive) in assay [13], 13.7 µM (inactive) in assay [14], 13.8 µM (inactive) in assay [15] and 16.5 µM (inactive) in assay [16].
`Sc1nnc(COc2ccc(Cl)cc2)n1-c1ccccc1`: the GI50 in assay [1] was > 100 µM (inactive); in [2], > 100 µM (inactive); in [3] it was > 100 µM (inactive); in assay [4], > 100 µM (inactive); in assay [5] it was 61.2 µM (inactive); in assay [6], > 100 µM (inactive). Also, the GI50 in assay [7], in [8], in assay [9], in assay [10], in assay [11] and in assay [17] was > 100 µM (inactive) each time. The GI50 in assay [12] was > 100 µM (inactive); in assay [13] it was > 100 µM (inactive); in [14], 30.4 µM (inactive); in assay [18] it was > 100 µM (inactive); in assay [15], > 100 µM (inactive); in assay [19] it was > 100 µM (inactive). Besides, the GI50 in assay [16] is > 100 µM (inactive).
`COc1cc(S(=O)(=O)Nc2ccc(-c3csc(N4C(=O)CSC4c4cccc(Oc5ccccc5)c4)n3)cc2)ccc1Cl` (stereo unspecified): the GI50 in assay [1] is 61.4 µM (inactive); in assay [3] it was 59 µM (inactive); in assay [5], 47.5 µM (inactive); in assay [6], 40.4 µM (inactive); in assay [7], 65.8 µM (inactive); in [8] it was 24.3 µM (inactive). Moreover, the GI50 is 33.7 µM (inactive) in [20]; 16.7 µM (inactive) in assay [9]; 58.1 µM (inactive) in assay [10]; 46.7 µM (inactive) in assay [11]; 52.6 µM (inactive) in [17]; > 100 µM (inactive) in assay [12]. In addition, the GI50 was 7.48 µM (inactive) in assay [14]; 33.5 µM (inactive) in [18]; 21.1 µM (inactive) in [15]; 74.3 µM (inactive) in assay [19]; 23.9 µM (inactive) in [16].
With `Cc1cc(C2(c3cc(C)c(O)c4ncccc34)OC(=O)c3ccccc32)c2cccnc2c1O`, the GI50 in assay [1] was 0.0353 µM (active); in [2] it was 0.0692 µM (active); in assay [3] it was 1.47 µM (inactive); in [4] it was 0.0288 µM (active); in assay [5] it was 0.00574 µM (active); in assay [6], 0.0187 µM (active). Further, the GI50 in assay [7] is 0.0299 µM (active); in assay [8] it was 0.0121 µM (active); in [9], 0.741 µM (active); in [10], 0.069 µM (active); in assay [11], 0.252 µM (active); in [17] it was 0.067 µM (active). The GI50 in assay [12] was 0.00662 µM (active); in assay [13] it was 2.77 µM (inactive); in assay [14] it was 0.0382 µM (active); in assay [18], 0.0682 µM (active); in assay [15] it was 0.0247 µM (active); in assay [19], 0.0217 µM (active). For the same compound, the GI50 in assay [16] is 0.00925 µM (active).
As for `COc1cc2c(cc1OC)-c1cc3ccccc3c(=O)n1CCC2`, the GI50 in assay [1] is 13.1 µM (inactive); in [2], 5.47 µM (inactive); in assay [3], 6.62 µM (inactive); in [4], 6.49 µM (inactive); in assay [5], 13 µM (inactive); in assay [6], 19.7 µM (inactive). In addition, the GI50 is 11.1 µM (inactive) in assay [7]; 13.3 µM (inactive) in [8]; 5.02 µM (inactive) in assay [9]; 19.1 µM (inactive) in assay [10]; 15.4 µM (inactive) in [11]; 24.6 µM (inactive) in assay [17]. In addition, the GI50 was 13.4 µM (inactive) in assay [12]; 19.8 µM (inactive) in [13]; 17.9 µM (inactive) in [14]; 5.69 µM (inactive) in assay [18]; 2.58 µM (inactive) in assay [15]; 12 µM (inactive) in assay [19]. Also, in [16], the GI50 was 3.56 µM (inactive).
In the case of `CC1=NNC(=O)C1C1CC(c2c[nH]c3ccccc23)=NNC1=O` (stereo unspecified), the GI50 in assay [1], in [2], in assay [3], in assay [4], in assay [5] and in assay [6] was > 100 µM (inactive) throughout. Moreover, the GI50 in assay [7] is > 100 µM (inactive); in assay [8], > 100 µM (inactive); in [9], > 100 µM (inactive); in [10] it was 28.4 µM (inactive); in [11], > 100 µM (inactive); in assay [12], > 100 µM (inactive). Moreover, the GI50 in assay [13], in assay [14], in [18], in assay [15], in assay [19] and in assay [16] was > 100 µM (inactive) throughout.
With `O=C1Nc2ccc(Br)cc2/C1=N/S(=O)(=O)O`, the GI50 is 18.4 µM (inactive) in [1]; 16.3 µM (inactive) in assay [2]; > 100 µM (inactive) in assay [3]; 13.6 µM (inactive) in assay [4]; 35 µM (inactive) in assay [5]; 19.6 µM (inactive) in assay [6]. Further, the GI50 was 33.7 µM (inactive) in assay [7]; 62.8 µM (inactive) in [8]; 48.4 µM (inactive) in assay [9]; 24.5 µM (inactive) in [10]; > 100 µM (inactive) in assay [11]; 19 µM (inactive) in assay [17]. Also, the GI50 in assay [12] is 45.9 µM (inactive); in [13], 15.9 µM (inactive); in assay [14] it was 29 µM (inactive); in [18] it was 6.38 µM (inactive); in assay [15] it was 12.9 µM (inactive); in assay [19], 60.5 µM (inactive). Further, the GI50 in assay [16] is 11.4 µM (inactive).
Consider `O=c1oc2ccccc2c(O)c1C1c2c(c3ccccc3oc2=O)Oc2c1c(=O)oc1ccccc21`, for which the GI50 in assay [1] is 30.1 µM (inactive); in assay [2] it was 32.4 µM (inactive); in [3] it was 49.5 µM (inactive); in [4], 38.1 µM (inactive); in assay [5] it was 19 µM (inactive); in [6], 31.3 µM (inactive). For the same compound, the GI50 in assay [8] is 29.4 µM (inactive); in assay [10], 57.1 µM (inactive); in [11], 35.2 µM (inactive); in assay [17], 32.9 µM (inactive); in assay [12], 28.4 µM (inactive); in [13], 34.8 µM (inactive). Further, the GI50 in assay [14] was 38.4 µM (inactive); in assay [18], 28.7 µM (inactive); in assay [19], 64.4 µM (inactive); in [16], 18.9 µM (inactive).
In the case of `C=C1c2c(n(S(=O)(=O)c3ccccc3)c3ccccc23)[C@@]2(C(=O)OC)CC3C=CC2N1C3`, the GI50 in [1], in assay [2], in [4], in assay [6], in [7] and in [8] was > 100 µM (inactive) throughout. The GI50 in assay [9], in [10], in assay [11], in [17], in [12] and in assay [13] was > 100 µM (inactive) in each case. For the same compound, the GI50 in [14] is > 100 µM (inactive); in assay [18], > 100 µM (inactive); in assay [15], 8.09 µM (inactive); in [19], > 100 µM (inactive); in assay [16] it was > 100 µM (inactive).
With `CC1CC(Br)C(=O)O1` (stereo unspecified), the GI50 in assay [1], in assay [2], in assay [3], in assay [4], in assay [5] and in assay [6] was > 100 µM (inactive) each time. Further, the GI50 in assay [7] was > 100 µM (inactive); in assay [8], > 100 µM (inactive); in assay [9] it was > 100 µM (inactive); in assay [10], 70 µM (inactive); in assay [11], > 100 µM (inactive); in assay [17], > 100 µM (inactive). The GI50 in assay [12], in assay [13], in [14], in assay [18], in [15] and in assay [19] was > 100 µM (inactive) throughout. Besides, the GI50 in assay [16] was > 100 µM (inactive).
For the compound `CCOC(=O)N(CC)c1c(C(F)(F)F)cc(-c2ccccc2)[nH]c1=O`, the GI50 in [1] is 48.6 µM (inactive); in [2] it was > 100 µM (inactive); in assay [3], 50.7 µM (inactive); in assay [4], 55.2 µM (inactive); in assay [5], 56.1 µM (inactive); in assay [6], 52.2 µM (inactive). Further, the GI50 was 33.4 µM (inactive) in [7]; 28.2 µM (inactive) in [9]; 50.7 µM (inactive) in assay [11]; 30.8 µM (inactive) in assay [17]; 58.6 µM (inactive) in assay [12]; 48.3 µM (inactive) in assay [13]. In addition, the GI50 in assay [14] is 32.7 µM (inactive); in assay [18], 22.8 µM (inactive); in assay [15], 13.6 µM (inactive); in assay [19], 73.5 µM (inactive); in assay [16] it was 23.3 µM (inactive).

The record behind these values is ChEMBL document CHEMBL1201862, “PubChem BioAssay data set” (2004).
